From ChEMBL document CHEMBL5356952, “Design, synthesis, and biological evaluation of deuterated indolepropionic acid derivatives as novel long-acting pan PPARα/γ/δ agonists” (Bioorg Med Chem, 2023)

Experiments:
[1] = Metabolic stability in rat liver microsomes assessed as half life preincubated for 5 mins followed by NADPH addition and measured upto 60 mins by LC-MS analysis; assay type: ADME, Microsome; conditions: time < 65 min
[2] = target: T1, Peroxisome proliferator-activated receptor alpha (Homo sapiens, UniProt Q07869); assay: Agonist activity at PPARalpha (unknown origin)
T1 sequence (Q07869 whole entry): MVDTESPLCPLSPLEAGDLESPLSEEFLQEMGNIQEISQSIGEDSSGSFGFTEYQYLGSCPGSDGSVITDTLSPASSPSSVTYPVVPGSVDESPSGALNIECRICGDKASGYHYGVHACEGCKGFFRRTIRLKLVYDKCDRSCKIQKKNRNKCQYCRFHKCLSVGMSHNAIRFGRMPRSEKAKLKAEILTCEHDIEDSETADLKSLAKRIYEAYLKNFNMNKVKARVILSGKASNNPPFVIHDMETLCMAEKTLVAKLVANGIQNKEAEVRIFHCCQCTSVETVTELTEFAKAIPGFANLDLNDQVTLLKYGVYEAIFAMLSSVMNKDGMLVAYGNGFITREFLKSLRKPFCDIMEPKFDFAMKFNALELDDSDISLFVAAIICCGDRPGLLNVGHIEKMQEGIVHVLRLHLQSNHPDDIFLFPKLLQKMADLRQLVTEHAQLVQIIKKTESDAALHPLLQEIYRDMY

[3] = target: T2, Peroxisome proliferator-activated receptor delta (Homo sapiens, UniProt Q03181); assay: Agonist activity at PPARdelta (unknown origin)
T2 sequence (Q03181 whole entry): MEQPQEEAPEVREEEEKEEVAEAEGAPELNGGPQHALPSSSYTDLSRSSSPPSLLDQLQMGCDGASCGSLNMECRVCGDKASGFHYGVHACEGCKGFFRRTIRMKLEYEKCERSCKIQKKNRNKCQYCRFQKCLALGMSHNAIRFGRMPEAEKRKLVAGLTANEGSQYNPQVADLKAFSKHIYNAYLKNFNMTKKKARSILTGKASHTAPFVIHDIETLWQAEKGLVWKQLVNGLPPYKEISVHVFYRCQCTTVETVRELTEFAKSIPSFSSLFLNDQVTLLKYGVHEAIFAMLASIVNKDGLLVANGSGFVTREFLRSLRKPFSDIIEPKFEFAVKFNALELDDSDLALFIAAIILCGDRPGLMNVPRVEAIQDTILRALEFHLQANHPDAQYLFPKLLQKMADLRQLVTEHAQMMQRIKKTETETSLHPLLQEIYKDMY

[4] = target: T3, Peroxisome proliferator-activated receptor gamma (Homo sapiens, UniProt P37231); assay: Agonist activity at PPARgamma (unknown origin)
T3 sequence (P37231 whole entry): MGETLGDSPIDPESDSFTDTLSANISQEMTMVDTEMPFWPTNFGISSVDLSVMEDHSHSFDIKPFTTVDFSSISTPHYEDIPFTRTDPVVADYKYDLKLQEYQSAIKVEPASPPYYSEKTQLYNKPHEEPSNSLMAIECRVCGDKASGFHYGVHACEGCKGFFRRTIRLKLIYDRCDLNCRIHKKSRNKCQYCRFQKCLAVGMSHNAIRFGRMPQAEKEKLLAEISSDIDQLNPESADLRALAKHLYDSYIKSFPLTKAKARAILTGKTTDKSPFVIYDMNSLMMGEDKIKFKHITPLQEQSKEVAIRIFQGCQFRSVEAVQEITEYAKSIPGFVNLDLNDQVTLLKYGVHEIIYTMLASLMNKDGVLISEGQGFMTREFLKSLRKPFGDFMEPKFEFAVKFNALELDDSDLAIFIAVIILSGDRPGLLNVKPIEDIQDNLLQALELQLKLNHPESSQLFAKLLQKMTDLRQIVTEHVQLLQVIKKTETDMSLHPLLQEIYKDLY

[5] = Half life in rat; assay type: ADME; conditions: in vivo

| half-life [1] | EC50 [2] | EC50 [3] | EC50 [4] | half-life [5] | SMILES |
| --- | --- | --- | --- | --- | --- |
| 1.12 h |  |  |  |  | [2H]C([2H])(Cc1cn(S(=O)(=O)c2ccc3c(c2)CCO3)c2ccc(OC)cc12)C(=O)O |
| 1.16 h | 0.98 µM | 0.85 µM |  |  | [2H]C([2H])(Cc1cn(S(=O)(=O)c2ccc(OC)cc2)c2ccc(OC)cc12)C(=O)O |
| 1.06 h |  |  |  |  | [2H]C([2H])(Cc1cn(S(=O)(=O)c2ccc(C3CC3)cc2)c2ccc(OC)cc12)C(=O)O |
| 1.23 h | 1.26 µM |  | 0.95 µM |  | [2H]C([2H])(Cc1cn(S(=O)(=O)c2ccc(OC(F)(F)F)cc2)c2ccc(OC)cc12)C(=O)O |
| 1.14 h | 2.52 µM | 2.97 µM |  |  | [2H]C([2H])(Cc1cn(S(=O)(=O)c2ccc(OC)cc2)c2ccc(C3CC3)cc12)C(=O)O |
| 0.775 h | 1.15 µM | 0.94 µM |  | 1.4 h | COc1ccc(S(=O)(=O)n2cc(CCC(=O)O)c3cc(OC)ccc32)cc1 [INDEGLITAZAR] |
